Results taken from patent publication EP4389751A1, “HETEROCYCLIC COMPOUNDS AND USES THEREOF” (Kumquat Biosciences Inc., priority 2021, dated 2024).

Key:
[1] = biological target: T1, KRAS protein (His-tagged GDP-loaded G12D 1-169) (Homo sapiens, UniProt P01116, G12D); assay: Covalent modification of KRAS protein, intact-protein LC-MS; format: binding; conditions: 24hrs at room temperature, KRAS protein ~2 µM
T1 construct: His-tagged GDP-loaded G12D 1-169
Summary of the method: (§1)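 His-tagged GDP-loaded KRAS 1-169 (~2 µM) incubated with compound 24 h at room temperature, then quenched with formic acid. Intact-protein LC-ESI-MS on C4 column; deconvoluted peak intensities of unmodified and adducted protein give percent covalent modification.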

[2] = biological target: T2, KRAS protein (His-tagged GDP-loaded G12S 1-169) (Homo sapiens, UniProt P01116, G12S); assay: as above; format: binding; conditions: for % G12S Modification at 24 hr.: 24hrs at room temperature, KRAS protein ~2 µM; for K-Ras12S engagement after 24-hour treatment: compound pairs differ only at R^6 (warhead)
T2 construct: His-tagged GDP-loaded G12S 1-169
Summary of the method: as §1

N#Cc1ccn(C(=O)N2C3CCC2CN(c2nc(OC[C@@]45CCCN4C[C@H](F)C5)nc4c(F)c(-c5ccc(F)c6sc(N)c(C#N)c56)c(Cl)cc24)C3)n1 [Compound A224, 1-(3-(7-(2-amino-3-cyano-7-fluorobenzo[b]thiophen-4-yl)-6-chloro-8-fluoro-2-(((2R,7aS)-2-fluorotetrahydro-1H-pyrrolizin-7a(5H)-yl)methoxy)quinazolin-4-yl)-3,8-diazabicyclo[3.2. 1]octane-8-carbonyl)-1H-pyrazole-3-carbonitrile]
% G12D Modification at 24 hr. [1]: ++ (++ indicates between about 1%- 20% labelling) | % G12S Modification at 24 hr. [2]: ++ (++ indicates between about 1%- 20% labelling)

Nc1nc2c(-c3c(Cl)cc4c(N5CCCC6(CN(C(=O)n7cncn7)C6)C5)nc(OC[C@@]56CCCN5C[C@H](F)C6)nc4c3F)ccc(F)c2s1 [Compound A136, (6-(7-(2-amino-7-fluorobenzo[d]thiazol-4-yl)-6-chloro-8-fluoro-2-(((2R,7aS)-2-fluorotetrahydro-1H-pyrrolizin-7a(5H)-yl)methoxy)quinazolin-4-yl)-2,6-diazaspiro[3.5]nonan-2-yl)(1H-1,2,4-triazol-1-yl)methanone]
% G12S Modification at 24 hr. [2]: +++ (+++ indicates greater than 20% labelling)

N#CCc1ncn(C(=O)N2CC3(C2)CN(c2nc(OC[C@@]45CCCN4C[C@H](F)C5)nc4c(F)c(-c5ccc(F)c6sc(N)c(C#N)c56)c(Cl)cc24)CCO3)n1 [Compound A110, 2-amino-4-(6-chloro-4-(2-(3-(cyanomethyl)-1H-1,2,4-triazole-1-carbonyl)-5-oxa-2,8-diazaspiro[3.5]nonan-8-yl)-8-fluoro-2-(((2R,7aS)-2-fluorotetrahydro-1H-pyrrolizin-7a(5H)-yl)methoxy)quinazolin-7-yl)-7-fluorobenzo[b]thiophene-3-carbonitrile]
K-Ras12S engagement after 24-hour treatment [2]: +++ (+++: indicates equal to or greater than 20% labelling) | % G12S Modification at 24 hr. [2]: +++ (+++ indicates greater than 20% labelling)

Cc1nc(C)n(C(=O)N2CC3(COCCN(c4nc(OC[C@@]56CCCN5C[C@H](F)C6)nc5c(F)c(-c6ccc(F)c7sc(N)c(C#N)c67)c(Cl)cc45)C3)C2)n1 [Compound A185, 2-amino-4-(6-chloro-4-(2-(3,5-dimethyl-1H-1,2,4-triazole-1-carbonyl)-6-oxa-2,9-diazaspiro[3.6]decan-9-yl)-8-fluoro-2-(((2R,7aS)-2-fluorotetrahydro-1H-pyrrolizin-7a(5H)-yl)methoxy)quinazolin-7-yl)-7-fluorobenzo[b]thiophene-3-carbonitrile]
% G12S Modification at 24 hr. [2]: ++ (++ indicates between about 1%- 20% labelling)

COCCN1CCC(Oc2nc(N3CCCCC4(CN(C(=O)n5cncn5)C4)C3)c3cc(Cl)c(-c4ccc(F)c5sc(N)c(C#N)c45)c(F)c3n2)CC1 [Compound A119, 4-(4-(2-(1H-1,2,4-triazole-1-carbonyl)-2,6-diazaspiro[3.6]decan-6-yl)-6-chloro-8-fluoro-2-((1-(2-methoxyethyl)piperidin-4-yl)oxy)quinazolin-7-yl)-2-amino-7-fluorobenzo[b]thiophene-3-carbonitrile]
% G12S Modification at 24 hr. [2]: +++ (+++ indicates greater than 20% labelling)

N#Cc1c(N)sc2c(F)ccc(-c3c(Cl)cc4c(N5CCCC6(CN(C(=O)n7cncn7)C6)C5)nc(OC[C@@]56CCCN5C[C@H](F)C6)nc4c3F)c12 [Compound A129, 4-(4-(2-(1H-1,2,4-triazole-1-carbonyl)-2,6-diazaspiro[3.5]nonan-6-yl)-6-chloro-8-fluoro-2-(((2R,7aS)-2-fluorotetrahydro-1H-pyrrolizin-7a(5H)-yl)methoxy)quinazolin-7-yl)-2-amino-7-fluorobenzo[b]thiophene-3-carbonitrile]
% G12S Modification at 24 hr. [2]: +++ (+++ indicates greater than 20% labelling)

Cc1ncn(C(=O)N2CC3(CCCN(c4nc(OC[C@@]56CCCN5C[C@H](F)C6)nc5c(F)c(-c6ccc(F)c7sc(N)c(C#N)c67)c(Cl)cc45)C3)C2)n1 [Compound A102, 2-amino-4-(6-chloro-8-fluoro-2-(((2R,7aS)-2-fluorotetrahydro-1H-pyrrolizin-7 a(5H)-yl)methoxy)-4-(2-(3-methyl-1H-1,2,4-triazole-1-carbonyl)-2,6-diazaspiro[3.5]nonan-6-yl)quinazolin-7-yl)-7-fluorobenzo[b]thiophene-3-carbonitrile]
% G12S Modification at 24 hr. [2]: +++ (+++ indicates greater than 20% labelling)

N#Cc1cn(C(=O)N2C3CCC2CN(c2nc(OC[C@@]45CCCN4C[C@H](F)C5)nc4c(F)c(-c5ccc(F)c6sc(N)nc56)c(Cl)cc24)C3)cn1 [Compound A123, 1-(3-(7-(2-amino-7-fluorobenzo[d]thiazol-4-yl)-6-chloro-8-fluoro-2-(((2R,7aS)-2-fluorotetrahydro-1H-pyrrolizin-7a(5H)-yl)methoxy)quinazolin-4-yl)-3,8-diazabicyclo[3.2. 1]octane-8-carbonyl)-1H-imidazole-4-carbonitrile]
K-Ras12S engagement after 24-hour treatment [2]: ++ (++: indicates between 1% to 20% labelling) | % G12S Modification at 24 hr. [2]: ++ (++ indicates between about 1%- 20% labelling)

C#Cc1c(F)ccc2cc(O)cc(-c3ncc4c(N5CCOCC6(CN(C(=O)n7cnc(C)n7)C6)C5)nc(OC[C@@]56CCCN5C[C@H](F)C6)nc4c3F)c12 [Compound A298, (9-(7-(8-ethynyl-7-fluoro-3-hydroxynaphthalen-1-yl)-8-fluoro-2-(((2R,7aS)-2-fluorotetrahydro-1H-pyrrolizin-7a(5H)-yl)methoxy)pyrido[4,3-d]pyrimidin-4-yl)-6-oxa-2,9-diazaspiro[3.6]decan-2-yl)(3-methyl-1H-1,2,4-triazol-1-yl)methanone]
% G12S Modification at 24 hr. [2]: +++ (+++ indicates greater than 20% labelling)

Cc1ncn(C(=O)N2CC3CCN(c4nc(OC[C@@]56CCCN5C[C@H](F)C6)nc5c(F)c(-c6ccc(F)c7sc(N)c(C#N)c67)c(Cl)cc45)C3C2)n1 (stereo partly drawn) [Compound A304, 2-amino-4-(6-chloro-8-fluoro-2-(((2R,7aS)-2-fluorotetrahydro-1H-pyrrolizin-7a(5H)-yl)methoxy)-4-(5-(3-methyl-1 H-1,2,4-triazole-1-carbonyl)hexahydropyrrolo[3,4-b]pyrrol-1(2H)-yl)quinazolin-7-yl)-7-fluorobenzo[b]thiophene-3-carbonitrile]
% G12S Modification at 24 hr. [2]: +++ (+++ indicates greater than 20% labelling)
